Measurements: paper PMC8269394, “Characterization of an Atypical Trypanosoma brucei Hsp70 Demonstrates Its Cytosolic-Nuclear Localization and Modulation by Quercetin and Methylene Blue” (International Journal of Molecular Sciences, 2021)

What was measured:
Test in all cases: ATPase assay, colorimetric phosphate release
Format in all cases: biochemical
[1] = molecular target: T1, TcHsp70B (Trypanosoma cruzi, UniProt P05456); conditions: 600 µM ATP; 37 °C; no Tbj2
T1 construct: gene HSP70

[2] = molecular target: T2, TbHsp70.c (Trypanosoma brucei, UniProt Q383E9); conditions: 600 µM ATP; 37 °C; no Tbj2
T2 construct: gene Tb11.01.3080
T2 sequence (Q383E9 1-676): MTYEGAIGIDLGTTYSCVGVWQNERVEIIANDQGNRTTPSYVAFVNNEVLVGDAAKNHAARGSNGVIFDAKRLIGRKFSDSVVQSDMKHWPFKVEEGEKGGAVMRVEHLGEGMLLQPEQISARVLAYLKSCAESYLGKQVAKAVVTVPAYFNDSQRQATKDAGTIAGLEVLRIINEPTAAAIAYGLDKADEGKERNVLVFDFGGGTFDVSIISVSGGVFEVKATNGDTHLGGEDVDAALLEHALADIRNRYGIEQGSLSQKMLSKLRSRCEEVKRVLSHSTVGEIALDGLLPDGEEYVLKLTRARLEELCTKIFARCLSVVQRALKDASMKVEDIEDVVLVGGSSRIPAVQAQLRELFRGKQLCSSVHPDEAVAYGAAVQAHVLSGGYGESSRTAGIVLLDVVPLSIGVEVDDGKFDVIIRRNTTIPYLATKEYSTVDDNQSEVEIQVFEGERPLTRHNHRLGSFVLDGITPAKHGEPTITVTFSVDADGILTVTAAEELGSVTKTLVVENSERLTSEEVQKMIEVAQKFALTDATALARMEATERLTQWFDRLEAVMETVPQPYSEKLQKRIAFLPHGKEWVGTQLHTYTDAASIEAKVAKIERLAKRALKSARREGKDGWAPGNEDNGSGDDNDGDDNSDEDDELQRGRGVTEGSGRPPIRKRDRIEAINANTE

[3] = molecular target: T3, TbHsp70.c-Tbj2 (Trypanosoma brucei, UniProt Q383E9); conditions: 30 µM methylene blue; 1 µM each protein; 600 µM ATP; 37 °C; activator
T3 construct: gene Tb11.01.3080; recombinant purified TbHsp70.c with recombinant co-chaperone Tbj2 at equal concentration; with Chaperone protein DnaJ, putative (type I J-protein Tbj2)
T3 sequence (Q383E9 1-676): as above
T3 sequence (Q585V4 1-404 partner): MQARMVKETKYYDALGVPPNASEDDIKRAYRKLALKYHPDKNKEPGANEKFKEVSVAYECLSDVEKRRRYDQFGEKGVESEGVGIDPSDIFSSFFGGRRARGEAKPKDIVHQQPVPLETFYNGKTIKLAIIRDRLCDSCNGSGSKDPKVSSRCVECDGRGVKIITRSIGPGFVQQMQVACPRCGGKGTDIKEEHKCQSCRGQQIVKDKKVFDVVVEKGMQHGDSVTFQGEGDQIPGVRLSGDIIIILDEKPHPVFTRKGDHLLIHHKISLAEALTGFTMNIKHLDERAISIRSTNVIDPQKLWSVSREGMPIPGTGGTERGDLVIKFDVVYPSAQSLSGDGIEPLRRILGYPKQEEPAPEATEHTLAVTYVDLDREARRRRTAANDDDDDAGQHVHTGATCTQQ
From the text: ATPase assay, colorimetric phosphate release on TbHsp70.c-Tbj2 | in the presence of Tbj2, methylene blue enhanced the ATPase activity of TbHsp70.c

[4] = molecular target: T1, TcHsp70B; conditions: 30 µM quercetin; 0.4 µM protein; 600 µM ATP; 37 °C; no Tbj2
[5] = molecular target: T3, TbHsp70.c-Tbj2; conditions: 30 µM quercetin; 0.4 µM each protein; 600 µM ATP; 37 °C
[6] = molecular target: T2, TbHsp70.c; conditions: 30 µM quercetin; 0.4 µM protein; 600 µM ATP; 37 °C; no Tbj2
[7] = molecular target: T4, TcHsp70B-Tbj2 (Trypanosoma cruzi, UniProt P05456); conditions: 30 µM quercetin; 0.4 µM each protein; 600 µM ATP; 37 °C
T4 construct: gene HSP70; mixed species: recombinant T. cruzi TcHsp70B with recombinant T. brucei co-chaperone Tbj2; with Chaperone protein DnaJ, putative (type I J-protein Tbj2, Trypanosoma brucei)
T4 sequence (P05456 whole entry): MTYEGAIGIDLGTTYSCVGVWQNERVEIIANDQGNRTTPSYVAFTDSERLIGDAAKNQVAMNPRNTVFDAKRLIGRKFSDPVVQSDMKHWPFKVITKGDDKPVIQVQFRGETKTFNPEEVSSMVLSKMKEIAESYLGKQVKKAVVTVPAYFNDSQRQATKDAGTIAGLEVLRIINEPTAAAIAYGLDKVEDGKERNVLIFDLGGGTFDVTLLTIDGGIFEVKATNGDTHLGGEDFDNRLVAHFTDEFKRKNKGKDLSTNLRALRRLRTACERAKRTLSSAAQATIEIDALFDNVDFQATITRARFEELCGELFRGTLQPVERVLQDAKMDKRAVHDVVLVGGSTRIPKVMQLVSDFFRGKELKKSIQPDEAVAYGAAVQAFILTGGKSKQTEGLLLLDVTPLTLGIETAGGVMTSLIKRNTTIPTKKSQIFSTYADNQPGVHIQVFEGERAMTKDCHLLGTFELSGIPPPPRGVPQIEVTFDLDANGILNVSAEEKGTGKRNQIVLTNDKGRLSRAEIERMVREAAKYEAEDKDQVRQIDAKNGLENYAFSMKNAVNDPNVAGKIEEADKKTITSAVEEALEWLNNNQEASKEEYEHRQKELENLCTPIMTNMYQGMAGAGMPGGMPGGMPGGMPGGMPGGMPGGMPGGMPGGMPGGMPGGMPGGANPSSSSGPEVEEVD
T4 sequence (Q585V4 1-404 partner): as the sequence (Q585V4 1-404 partner) above

T1 sequence (P05456 whole entry): as the sequence (P05456 whole entry) above

Nc1ncnc2c1ncn2[C@@H]1O[C@H](COP(=O)(O)OP(=O)(O)OP(=O)(O)O)[C@@H](O)[C@H]1O [ATP]
ATPase assay, colorimetric phosphate release [1]: Inorganic phosphate released by ATP in the presence of each Hsp70 was monitored | ATPase assay, colorimetric phosphate release [2]: Inorganic phosphate released by ATP in the presence of each Hsp70 was monitored

CN(C)c1ccc2nc3ccc(=[N+](C)C)cc-3sc2c1 [methylene blue]
fold increase in Tbj2-stimulated ATPase at 30 μM [3]: 1.5 fold

O=c1c(O)c(-c2ccc(O)c(O)c2)oc2cc(O)cc(O)c12 [quercetin, 3,3′,4′,5,7-Pentahydroxyflavone]
fold inhibition of basal ATPase at 30 μM [4]: 1.3 fold | fold inhibition of Tbj2-stimulated ATPase at 30 μM [5]: 9.3 fold | basal ATPase inhibition at 30 μM [6]: Our findings suggest that quercetin inhibits the basal ATPase activity of TbHsp70.c | fold inhibition of Tbj2-stimulated ATPase at 30 μM [7]: 1.4 fold
